# From patent US12303489B2, “Combination treatment of arthritic disease” (SYNACT PHARMA APS, priority 2019, dated 2025)
# How the values were obtained:
# [1] = Phase I Part I: single ascending oral dose safety
# Description: (§1) Fourteen days repeated dosing was initiated using a tablet formulation (Part III) and was completed (Part IV) using the suspension for oral administration.
# The two first male groups were composed of 3 subjects receiving active and one subject placebo; the other groups consisted of 6 subjects receiving active IMP and two subjects receiving placebo. Forty-eight (48) healthy male volunteers aged 19 to 39 years and eight (8) healthy postmenopausal female volunteers, aged 47 to 60 years were included.
# [2] = Phase I Part III: 14-day repeated dose pharmacokinetics, tablets; assay type: in vivo, human (healthy volunteers); conditions: tablets 100 mg daily (Group 1)
# Description: as §1
# A total of 111 subjects were randomized; 104 young healthy male volunteers and eight (8) post-menopausal women.
# MC3R = conditions: induces ERK1/2-phosphorylation and Ca2+ mobilization; cited from earlier work
# [3] = Phase I Part I: single ascending oral dose pharmacokinetics (oral suspension); assay type: in vivo, human (healthy volunteers)
# Description: FIG. 2: Plasma concentration following single oral dosing of test compound in healthy volunteers. […] Dose levels of test compound: 100, 200, 400, 600 or 800 mg. Consecutive plasma samples were collected and concentration in plasma determined by LCMS-MS. N=6 per dose level. Mean per group.
# MC1R [4] = conditions: cited from earlier work
# [5] = Phase I Part IV: 14-day repeated dose pharmacokinetics, oral suspension; assay type: in vivo, human (healthy volunteers)
# Description: FIG. 3: Plasma concentration following repeated oral dosing of test compound in healthy volunteers. […] Dose levels of test compound 1: 50, 100, 200 mg. Consecutive plasma samples were collected following the last day of dosing (day 14) and concentration in plasma determined by LCMS-MS. N=9 per dose level. Mean+/−SD per group.
# MC1R [6] = molecular target: MC1R (Homo sapiens, UniProt Q01726); conditions: WO 2007/141343; cited from earlier work
# Sequence of MC1R (Homo sapiens, UniProt Q01726) (Q01726 whole entry, species assumed): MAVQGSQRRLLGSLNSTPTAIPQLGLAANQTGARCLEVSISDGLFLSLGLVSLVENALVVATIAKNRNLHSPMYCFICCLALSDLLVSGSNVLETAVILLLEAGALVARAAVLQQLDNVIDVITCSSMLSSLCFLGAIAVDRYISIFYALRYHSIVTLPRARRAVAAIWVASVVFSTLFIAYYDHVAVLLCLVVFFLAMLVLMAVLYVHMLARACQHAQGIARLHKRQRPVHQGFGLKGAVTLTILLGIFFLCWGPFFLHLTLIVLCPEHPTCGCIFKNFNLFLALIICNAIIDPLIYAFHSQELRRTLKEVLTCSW
# [7] = Phase I Part II: comparative bioavailability tablet vs. oral suspension; assay type: in vivo, human (healthy volunteers); conditions: 200 mg as two 100 mg tablets vs. 200 mg oral suspension, three-way cross-over
# [8] = test system: K/BxN serum induced arthritis in C57/BL6 mice; assay: K/BxN serum transfer arthritis, incidence of severe arthritis; assay type: in vivo; conditions: K/BxN serum i.p. days 0 and 2; 8 days study period; N=6; drug alone
# Description: Six week-old C57/BL6 mice were purchased from Charles River and left for one week for acclimatization before starting the experiment.
# Arthritis was induced with two i.p. injections of 100 μl K/BxN serum on days 0 and 2 (for details see J Immunol 2015; 194:3381-3388).
# Methotrexate and Veh2 (12.5% carbonate) were administered on days 3, 5 and 7 by i.p. injection (injected volume: 200 μl).
# Preparation of methotrexate formulation: A small volume of 0.1M carbonate-bicarbonate buffer pH=9.6 was used to dissolve methotrexate (Sigma Cat no: A6770). Then, PBS was used to reach the desired concentration. […] Diluted compound was divided in single-use aliquots and stored at −20° C. until use.
# The development of arthritis was monitored daily from day 0 to day 8.
# Mice were sacrificed on day 8 after recording the daily measurements.
# Visible signs of arthritis were assessed using the scoring method as described in Am J Pathol, 2014; 184(8):2333-41 consisting on assigning a score of 0-3 per paw, reaching a maximum of 12 per mouse: • Score 0: no signs of inflammation. • Score 1: subtle inflammation, localized. • Score 2: easily identified but localized. • Score 3: evident inflammation, not localized. […]
# The incidence of severe arthritis was calculated as the % of mice in each group that reached a total score of 10.
# [9] = Phase I Part IV: 14-day repeated dose safety, oral suspension
# Description: A Part IV was added to the study that was identical to Study Part III but conducted with the oral suspension in fasting conditions.
# The dose levels tested were 50 mg, 100 mg or 200 mg with matching placebo (See FIG. 3).
# [10] = female post-menopausal subjects, single 400 mg oral suspension
# [11] = 50, 100 or 200 mg once daily for 14 days
smiles,measurement,setting,value
CC(=O)O.N=C(N)N/N=C/C=C/c1cccn1-c1ccccc1[N+](=O)[O-] [AP1189],QTcF and other cardiac parameters,"[1]; continuous 24-hours 1000 HZ Holter ECG recording, single dose",No AP1189 associated increases in QTcF
same,"increase in aminotransferases, above the normal upper value of ALT","[1]; male subjects, single dose 400, 600 or 800 mg",up to 1.6
same,subjects with isolated increases in aminotransferases,"[1]; male subjects, single dose (1 at 400 mg, 2 at 600 mg, 1 at 800 mg)",4 subjects
same,severe AEs / serious AEs,[1]; single oral dose 15-800 mg,No severe AEs nor serious AEs
same,treatment-related changes in vital signs,[1]; single oral dose 15-800 mg,No treatment-related changes in vital signs
same,maximum tolerated dose (MTD),[1]; single oral dose up to 800 mg,not reached
same,bioavailability within and between subjects,[2],high and unpredicted degree of bioavailability both within and between subjects
same,"exposure judged on Cmax, span",[2],from below the limit of quantification (BLQ) up to levels expected to be more than three times the exposure expected to induce therapeutic effects
same,activity at receptor MC3R,MC3R,biased dual agonist
same,Cmax and AUCs compared to male subjects,[3]; [10],slightly increased
same,apparent clearance,[3]; [10],17.26 L/h
same,apparent volume of distribution compared to male subjects,[3]; [10],similar
same,inter-individual variability for Cmax and AUCs,"[3]; male subjects, single oral suspension, dose range 50-800 mg, fasting",< 36%
same,exposure at the maximum administrated dose (MAD) above expected exposure level for therapeutic efficacy,"[3]; single oral dose, MAD",more than 10 ×
same,activity at receptor MC1R,MC1R [4]; induces ERK1/2-phosphorylation and Ca2+ mobilization,biased dual agonist
same,canonical cAMP generation,"MC1R [4]; receptors MC1R and MC3R, hence no MC1R-induced melanogenesis",does not provoke canonical cAMP generation
same,day steady state achieved,[5]; 50 mg once daily oral suspension,7 days
same,peak increase compared to cohort 1 (50 mg),[5]; 100 mg once daily oral suspension,approximately 2 fold
same,Cmax,"[5]; male, human, plasma, oral, 200 mg once daily, steady conditions, read-out: C Max (mean +/− SD, N = 9)",0.893 ± 0.198 µg/mL
same,binding to MC1R,MC1R [6],shown to bind the MC1R
same,exposure of tablet compared to oral suspension,[7],lower exposure with higher variability
same,incidence of severe arthritis (% of mice in each group that reached a total score of 10),[8],50%
same,QTcF in repeated standard 12 lead safety ECG,[9]; [11],No individual QTcF clinically significant values
same,severe AEs / serious AEs,[9]; [11],No severe AEs nor serious AEs
same,subjects treated with active with isolated increases in aminotransferases,"[9]; Cohort 3, 200 mg once daily for 14 days",3 subjects
same,TEAEs considered possibly related to the study treatment,"[9]; once daily for 14 days, 2 at 50 mg, 2 at 200 mg, gastrointestinal disorders",4 events
same,MTD,[9]; up to 200 mg once daily for 14 days,not reached
"CN(Cc1cnc2nc(N)nc(N)c2n1)c1ccc(C(=O)N[C@@H](CCC(=O)O)C(=O)O)cc1 [methotrexate, reference compound]",incidence of severe arthritis (% of mice in each group that reached a total score of 10),[8],50%
